Laboratory results from PubChem BioAssay (NCI).
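Here, GI50 denotes the concentration required for 50% inhibition of growth. Definition used: TGI = concentration required for complete inhibition of growth.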

Assays:
Test in all cases: growth of human tumour cells (NCI), 384-well format
NCI-H226 lung = test system: NCI-H226 lung
NCI-H23 lung = test system: NCI-H23 lung
NCI-H322M lung = test system: NCI-H322M lung
NCI-H460 NSCLC = test system: NCI-H460 NSCLC
NCI-H522 lung = test system: NCI-H522 lung
NCI/ADR-RES ovarian = test system: NCI/ADR-RES ovarian
OVCAR-3 ovarian = test system: OVCAR-3 ovarian
OVCAR-4 ovarian = test system: OVCAR-4 ovarian
OVCAR-5 ovarian = test system: OVCAR-5 ovarian
OVCAR-8 ovarian = test system: OVCAR-8 ovarian
PC-3 prostate = test system: PC-3 prostate
RPMI-8226 leukemia = test system: RPMI-8226 leukemia
RXF 393 renal = test system: RXF 393 renal
SF-268 CNS = test system: SF-268 CNS
SF-295 CNS = test system: SF-295 CNS
SF-539 CNS = test system: SF-539 CNS
SK-MEL-2 melanoma = test system: SK-MEL-2 melanoma
SK-MEL-28 melanoma = test system: SK-MEL-28 melanoma
SK-MEL-5 melanoma = test system: SK-MEL-5 melanoma
SK-OV-3 ovarian = test system: SK-OV-3 ovarian
SN12C renal = test system: SN12C renal
SNB-19 CNS = test system: SNB-19 CNS
SNB-75 CNS = test system: SNB-75 CNS
SW-620 colon = test system: SW-620 colon
T-47D breast = test system: T-47D breast
TK-10 renal = test system: TK-10 renal
U251 glioblastoma = test system: U251 glioblastoma
UACC-257 melanoma = test system: UACC-257 melanoma
UACC-62 melanoma = test system: UACC-62 melanoma
UO-31 renal = test system: UO-31 renal

In the case of `C=CC(=O)N1CCC(Oc2cc3c(Nc4ccc(Cl)c(Cl)c4F)ncnc3cc2OC)CC1`, the TGI (NCI-H226 lung) is reported as 13.2 µM, the GI50 (NCI-H23 lung) is reported as 1.78 µM and the TGI (NCI-H23 lung) is reported as 6.13 µM. For the same compound, the GI50 (NCI-H322M lung) was < 0.01 µM, the TGI (NCI-H322M lung) was 4.15 µM and the GI50 (NCI-H460 NSCLC) was 2.87 µM. For the same compound, the TGI (NCI-H460 NSCLC) was 13.7 µM, the GI50 (NCI-H522 lung) was < 0.01 µM and the TGI (NCI-H522 lung) was 0.0162 µM. The GI50 (NCI/ADR-RES ovarian) was 1.1 µM, the TGI (NCI/ADR-RES ovarian) was 3.21 µM and the GI50 (OVCAR-3 ovarian) was 0.244 µM. For the same compound, the TGI (OVCAR-3 ovarian) was 3.21 µM, the GI50 (OVCAR-4 ovarian) was 0.363 µM and the TGI (OVCAR-4 ovarian) was 5.42 µM. For the same compound, the GI50 (OVCAR-5 ovarian) was 1.23 µM, the TGI (OVCAR-5 ovarian) was 11.8 µM and the GI50 (OVCAR-8 ovarian) was 1.95 µM. For the same compound, the TGI (OVCAR-8 ovarian) was 12.2 µM, the GI50 (PC-3 prostate) was 1.96 µM and the TGI (PC-3 prostate) was 10.4 µM. It also gave a GI50 (RPMI-8226 leukemia) of 1.25 µM, a TGI (RPMI-8226 leukemia) of 3.26 µM and a GI50 (RXF 393 renal) of 0.23 µM. The TGI (RXF 393 renal) was 1.31 µM, the GI50 (SF-268 CNS) was 1.19 µM and the TGI (SF-268 CNS) was 5.58 µM. It also gave a GI50 (SF-295 CNS) of 4.15 µM, a TGI (SF-295 CNS) of 14.9 µM and a GI50 (SF-539 CNS) of 1.36 µM. It also gave a TGI (SF-539 CNS) of 3.56 µM, a GI50 (SK-MEL-2 melanoma) of 1.75 µM and a TGI (SK-MEL-2 melanoma) of 4.66 µM. For the same compound, the GI50 (SK-MEL-28 melanoma) was 14 µM, the TGI (SK-MEL-28 melanoma) was 27.1 µM and the GI50 (SK-MEL-5 melanoma) was 2.98 µM. The TGI (SK-MEL-5 melanoma) was 13.3 µM, the GI50 (SK-OV-3 ovarian) was < 0.01 µM and the TGI (SK-OV-3 ovarian) was 1.52 µM. It also gave a GI50 (SN12C renal) of 0.353 µM, a TGI (SN12C renal) of 6.44 µM and a GI50 (SNB-19 CNS) of 2.92 µM. The TGI (SNB-19 CNS) was 14.4 µM, the GI50 (SNB-75 CNS) was 0.291 µM and the TGI (SNB-75 CNS) was 2.13 µM. It also gave a GI50 (SW-620 colon) of 4.42 µM, a TGI (SW-620 colon) of 16.6 µM and a GI50 (T-47D breast) of 0.0173 µM. The TGI (T-47D breast) was 7.89 µM, the GI50 (TK-10 renal) was < 0.01 µM and the TGI (TK-10 renal) was 0.738 µM. For the same compound, the GI50 (U251 glioblastoma) was 3.52 µM, the TGI (U251 glioblastoma) was 15.7 µM and the GI50 (UACC-257 melanoma) was 3.33 µM. For the same compound, the TGI (UACC-257 melanoma) was 13.6 µM, the GI50 (UACC-62 melanoma) was 2.44 µM and the TGI (UACC-62 melanoma) was 11.6 µM. It also gave a GI50 (UO-31 renal) of 0.137 µM and a TGI (UO-31 renal) of 2.08 µM.
